# Measurements from US20200215158A1, “Multifunctional, Self-Assembled Aptamer-Nanomedicine Compositions and Methods for treating Cancer” (The Methodist Hospital, priority 2018, published 2020).
# Key:
# [1] = test system: Karpas 299 xenograft tumor; test: Anticancer efficacy of Apt-NMed in vivo; parameters: species or system mouse; settings: post first dose treatment
# Method: Mice NOD.Cg-Prkdc^scid Il2rg^tmlWjl/SzJ (NOD SCID), 4-6-weeks old, were used to develop xenograft tumor models by subcutaneously injecting 6×10^6 cultured CD30-expressing lymphoma cells (Karpas 299) (in 100 μL of PBS buffer) into mice on the back. Dorsal tumor nodules were allowed to grow to a volume of ˜4 mm^3 before treatment initiation. Tumor-bearing mice were randomly assigned to three groups (with six mice in each group) as follows: (i) group administered with 0.25 mg Apt-NMed carrying […] to each mouse; (ii) group administered 20 μg free DOX to each mouse, and (iii) untreated group. Drugs were injected through tail veins every other day, and the treatment was continued for four weeks. Tumor length and width were measured with calipers weekly for each mouse. Tumor volume was calculated using the following equation:
# Tumor Volume=Length×Width^2×0.52
# (§1) The body weight of each mouse was also measured weekly to monitor potential drug toxicity. Mice were euthanized when tumor volume exceeded 2,000 mm^3.
# [2] = Body weight of tumor-bearing mice during treatment; assay type: in vivo, mouse
# Method: as §1
structure (smiles),measurement,setting,value
"COc1cccc2c1C(=O)c1c(O)c3c(c(O)c1C2=O)C[C@@](O)(C(=O)CO)C[C@@H]3O[C@H]1C[C@H](N)[C@H](O)[C@H](C)O1 [free DOX, doxorubicin]",day at which the last mouse died,[1],38 days
same,body weight loss,"[2]; day 35, 20 μg/mouse",20%
same,change in mice body weight,[2]; during treatment,considerable decrease
